# Measurements: patent publication US20210378926A1, “A TOPICAL COMPOSITION” (priority 2018, published 2021)
# Test system: S. hominis (ATCC 27844)
# Assay: Malodor Assay (H2S production, lead acetate paper blackening)
# Assay type: cell-based
# Conditions: S. hominis culture in TSB with 0.1% L-cysteine-HCl, 96 well plate, 37° C. for about 16 hours; blackening of lead acetate paper scored 0 to 10 versus control (completely black); ingredient amounts in ppm as per Table 1
# Protocol: The efficacy of different ingredients and combinations were tried using the Malodor Assay protocol with S. hominis (ATCC 27844) as described below:
# The malodour assay was done in a 96 well plate (Nunc™, ThermoFisher). First, a lead acetate paper was prepared as follows. A Whatman™ (No. 1) filter paper (150 mm, Cat No. 1001-150) was taken and cut to match the top cross-sectional dimension of the 96 well plate. 1% Lead acetate (Hi Media, RM 757) solution was prepared in distilled water and the Whatman™ filter paper was soaked in the prepared lead acetate solution. The excess solution from the filter paper was drained and allowed to dry in a Laminar Air Flow for 1 hour. After drying, the filter paper was wrapped in an Aluminium foil and autoclaved at 121° C. for about 20 minutes. This lead acetate paper was used for the assay to capture the malodour generation at the later stage.
# A TSB broth solution was prepared by adding 0.1% L-cysteine-HCl (Sigma, C1276) into TSB (Bacto, 211825, 30 g/L) and autoclaved. After that, the 96 well plate was taken followed by addition of 180 μL/well of the above prepared TSB solution into the wells. Then 20 μL/well of S. hominis culture ([…]) was added to the wells. Different ingredient and/or mix of ingredients as per following Table 1 were added into the wells along with a control (only distilled water and bacteria) as per the required concentration (as mentioned in Table 1). Finally, the lead acetate paper that was prepared previously was placed on the wells of the 96-well plate and the lid was closed. This plate was then incubated in an incubator (LABTOP, bacteriological incubator) at 37° C. for about 16 hours. The lid of the plate was opened after the incubation and observed the lead acetate paper for any visual change in colour. […] The results and the effect of actives were compared with the control (completely black).
# The results of these experiments are expressed in terms of “% reduction” in H2S production which is determined from the blackening of the spot as explained above. Each spot with different test samples has been compared with the control (completely black) sample. It was then rated on a scale of 0 to 10 (10 being completely black as like control and 0 is no blackening). From the score the percentage reduction was evaluated e.g. if the blackening of any sample is as dark as control then the score given was “8-10” and accordingly % reduction is <20%.
row,SMILES,% reduction in H2S production
1,"O=S(=O)([O-])[O-].[Cu+2] [K, CuSO4]",20-40%
2,"O=S(=O)([O-])[O-].[Fe+2] [G, FeSO4]",<20%
3,"O=S(=O)([O-])[O-].[Cu+2] [J, CuSO4]",<20%
4,"C=CCc1ccc(O)c(-c2cc(CC=C)ccc2O)c1 [D, magnolol]",<20%
5,"C=CCc1ccc(O)c(-c2ccc(O)c(CC=C)c2)c1 [C, honokiol]",20-40%
